Legend:
[1] = Test on the generation of silver chloride precipitation with silver nitrate; assay type: physicochemical; details: 0.5 g with 0.5 g of silver nitrate in 10 ml of ion exchange water, 5 minutes
Experimental: In 10 ml of ion exchange water, 0.5 g of 5-aminolevulinic acid phosphate and 0.5 g of silver nitrate were dissolved, the mixture was allowed to stand still for 5 minutes, and conditions of the liquid was observed. […] In this connection, 0.5 g of 5-aminolevulinic acid hydrochloride and 0.5 g of silver nitrate were dissolved in 10 ml of ion exchange water and allowed to stand still for 5 minutes, and conditions of the liquid was observed.
In 10 ml of ion exchange water, 0.5 g of 5-aminolevulinic acid nitrate and 0.5 g of silver nitrate were dissolved, the mixture was allowed to stand still for 5 minutes, and conditions of the liquid was observed.
In this connection, 0.5 g of 5-aminolevulinic acid hydrochloride and 0.5 g of silver nitrate were dissolved in 10 ml of ion exchange water and allowed to stand still for 5 minutes, and conditions of the liquid was observed.
In 10 ml of ion exchange water, 0.5 g of 5-aminolevulinic acid p-toluenesulfonate and 0.5 g of silver nitrate were dissolved, the mixture was allowed to stand still for 5 minutes, and conditions of the liquid was observed.

apple variety “Fuji” = experiment: Coloring test of apple; assay type: in vivo; details: for Coloring of red compared with 5-aminolevulinic acid hydrochloride: in vivo
Experimental: The 5-aminolevulinic acid phosphate obtained in Example 1 was dissolved in ion exchange water to the predetermined concentration shown in the following table. A spreader (“Approach BI” manufactured by Maruwa Biochemical) was added to the liquid to a concentration of 0.1% by weight. The pH was adjusted using phosphoric acid.
An aqueous 5-aminolevulinic acid hydrochloride solution was prepared in the same manner, except that the above-described 5-aminolevulinic acid phosphate was changed to 5-aminolevulinic acid hydrochloride and the phosphoric acid for pH adjustment was changed to hydrochloric acid.
The thus prepared liquid was sprayed at a ratio of 2 liters per branch on three main branches where young fruits of an apple variety “Fuji” bored but not yet colored into red (September 15). About 2 months thereafter (November 6), the apples were harvested and their coloring degree was examined. A color meter CR-200 manufactured by MINOLTA CAMERA was used for the measurement of color.
The 5-aminolevulinic acid nitrate obtained in Example 16 was dissolved in ion exchange water to the predetermined concentration shown in Table 16. A spreader (“Approach BI” manufactured by Maruwa Biochemical) was added to the liquid to a concentration of 0.1% by weight. The pH was adjusted using nitric acid.
A solution was prepared in the same manner, except that the above-described 5-aminolevulinic acid nitrate was changed to 5-aminolevulinic acid hydrochloride and the nitric acid was changed to hydrochloric acid.
The 5-aminolevulinic acid p-toluenesulfonate obtained in Example 23 was dissolved in ion exchange water to the predetermined concentration shown in Table 24. A spreader (“Approach B1” manufactured by Maruwa Biochemical) was added to the liquid to a concentration of 0.1% by weight. The pH was adjusted using p-toluenesulfonic acid.
A solution was prepared in the same manner, except that the above-described 5-aminolevulinic acid p-toluenesulfonate was changed to 5-aminolevulinic acid hydrochloride and the p-toluenesulfonic acid was changed to hydrochloric acid.

radish = experiment: Plant activating effect, foliar application, radish; assay type: in vivo; details: 21 days, 12 seeds
Experimental: After 600 g of upland soil was packed in a porcelain pot of 12 cm in inner diameter, 12 grains of radish seeds were sowed therein, covered with 5 mm in depth of the soil and allowed to grow in a green house. Foliar application treatment was carried out once a day using the following application liquids. Conditions of the leaves 21 days thereafter were observed.

[2] = Chloride ion concentration of aqueous solutions by ion chromatography; assay type: physicochemical; details: detection limit 0.1 ppm; each sample
Experimental: When chloride ion concentration in the aqueous 5-aminolevulinic acid phosphate solutions used in the above-described examples was measured by ion chromatography under the following conditions, it was equal to or lower than the detection limit (0.1 ppm) in each sample.
(§1) The measuring conditions are as follows; A: separation column (IonPac AS12A manufactured by Japan Dionex), B: guard column (IonPac AG12A manufactured by Japan Dionex), C: eluting solution (an aqueous solution containing Na2CO3: 3.0 mmol/l and NaHCO3: 0.5 mmol/l), D: flow rate (1.5 ml/min), E: suppressor (ASRS (recycle mode, current value 50 mA)), F: amount of introduced sample (25 μl), G: temperature of constant temperature oven (35° C.) and H: detector (electric conductivity detector).
When chloride ion concentration in the aqueous 5-aminolevulinic acid nitrate solutions used in the above-described examples was measured by ion chromatography under the following conditions, it was equal to or lower than the detection limit (0.1 ppm) in each sample.
as §1, with “follows:” for “follows;”, “consisting of” for “containing”
When chloride ion concentration in the aqueous 5-aminolevulinic acid p-toluenesulfonate solutions used in the above-described examples was measured by ion chromatography under the following conditions, it was equal to or lower than the detection limit (0.1 ppm) in each sample.

Chlorella sp. = experiment: Culturing of plankton; assay type: cell-based; details: for amount of cells: OD 660 nm: 1 mM additive
Experimental: (§2) 5-Aminolevulinic acid nitrate was added, to a concentration of 1 mM (194 ppm), to 100 ml of a sterilized culture shown in Table 17 (components of the culture), and a Chlorella sp. was inoculated therein and cultured on a reciprocal shaker at 30° C. under aerobic and dark conditions to measure the amount of cells (OD 660).
as §2, with “acid hydrochloride” for “acid nitrate”, “mM (168” for “mM (194”, “of the” for “of a”, “and the” for “and a”
The Chlorella sp. was inoculated into 100 ml of the sterilized culture shown in Table 17 (components of the culture) and cultured on a reciprocal shaker at 30° C. under aerobic and dark conditions to measure the amount of cells (OD 660).

[3] = Degradation test by sterilization; assay type: physicochemical
Experimental: Firstly, 50 mg of 5-aminolevulinic acid p-toluenesulfonate or 5-aminolevulinic acid hydrochloride was heat sterilized (121° C., 20 minutes, 1.5 kgf/cm^2). After confirming that there is no change in weight before and after the sterilization, degree of degradation of 5-aminolevulinic acid before and after the sterilization was verified by the method described in a reference (Clin. Chem., 36/8, 1494 (1990)).

Row | Compound | generation of precipitate [1] | Coloring, L (apple variety “Fuji”; 100 ppm (pH 5.0)) | Coloring, a (apple variety “Fuji”; 100 ppm (pH 5.0)) | Coloring, b (apple variety “Fuji”; 100 ppm (pH 5.0)) | Coloring, L (apple variety “Fuji”; 200 ppm (pH 4.9)) | Coloring, a (apple variety “Fuji”; 200 ppm (pH 4.9)) | Coloring, b (apple variety “Fuji”; 200 ppm (pH 4.9)) | Coloring of red compared with 5-aminolevulinic acid hydrochloride (apple variety “Fuji”) | plants judged 0: Abnormality was not found on the leaf surface (radish; 1 ppm in tap water) [plants] | plants judged 1: A region discolored to yellow was found on the leaf surface (radish; 1 ppm in tap water) [plants] | plants judged 2: A necrotic region was found on the leaf surface (radish; 1 ppm in tap water) [plants] | plants judged 0: Abnormality was not found on the leaf surface (radish; 10 ppm in tap water) [plants] | plants judged 1: A region discolored to yellow was found on the leaf surface (radish; 10 ppm in tap water) [plants] | plants judged 2: A necrotic region was found on the leaf surface (radish; 10 ppm in tap water) | plants judged 0: Abnormality was not found on the leaf surface (radish; 100 ppm in tap water) [plants] | plants judged 1: A region discolored to yellow was found on the leaf surface (radish; 100 ppm in tap water) [plants] | plants judged 2: A necrotic region was found on the leaf surface (radish; 100 ppm in tap water) | chloride ion concentration in the aqueous solutions used in the examples [2] [ppm] | also measured
1 | NCC(=O)CCC(=O)O.O=[N+]([O-])O [5-aminolevulinic acid nitrate, 5-aminolevulinic Acid Nitrate] | Generation of the precipitate was not found | 42.41 | 26.51 | 14.46 | 42.47 | 31.00 | 14.72 | Coloring of red was denser | 5 | 5 | 2 | 6 | 5 | 1 plant^ plants | 4 | 6 | 2 plants | ≤ 0.1 | effect on Chlorella culture compared with hydrochloride (Chlorella sp.): showed the same effect of 5-aminolevulinic acid hydrochloride; amount of cells: OD 660 nm (Chlorella sp.; Culture time 0 day): 1.8; amount of cells: OD 660 nm (Chlorella sp.; Culture time 1 day): 6.5; amount of cells: OD 660 nm (Chlorella sp.; Culture time 2 day): 12.6; amount of cells: OD 660 nm (Chlorella sp.; Culture time 3 day): 15.0
2 | Cc1ccc(S(=O)(=O)O)cc1.NCC(=O)CCC(=O)O [5-aminolevulinic acid p-toluenesulfonate, 5-aminolevulinic Acid p-toluenesulfonate] | Generation of the precipitate was not found | 42.39 | 26.44 | 14.69 | 42.36 | 30.93 | 14.34 | Coloring of red was denser | 6 | 3 | 3 | 5 | 5 | 2 plants | 7 | 4 | 1 plant^ plants | ≤ 0.1 | degradability by high temperature heat sterilization compared with hydrochloride [3]: lower degradability; Degradation degree (%) ([3]; 50 mg heat sterilized, 121° C., 20 minutes, 1.5 kgf/cm^2): 2.7%

From patent publication US8471061B2 (priority 2004, dated 2013)
